According to the supplement of paper PMC8671470:

Key:
Conditions in all cases: 72 h
BV-173 [1] = system: BV-173
Method in brief: (§1)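 Fifteen myeloid leukaemia cell lines were seeded in RPMI 1640 at densities titrated to the linear growth range and placed in 384-well plates with acoustically pre-printed compounds at five tenfold doses from 1 to 10,000 nM, in duplicate. After 72 h at 37 °C with 5% CO2, luminescent ATP viability was normalised to vehicle and to a positive control at 10 µM, and curves were fitted with a four-parameter log-logistic model. The IC50 was obtained from these fits.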

HEL [2] = system: HEL
Method in brief: as §1

HL-60 [3] = system: HL-60
Method in brief: as §1

K-562 [4] = system: K-562
Method in brief: as §1

KCL-22 [5] = system: KCL-22
Method in brief: as §1

KG-1 [6] = system: KG-1
Method in brief: as §1

KU-812 [7] = system: KU-812
Method in brief: as §1

LAMA-84 [8] = system: LAMA-84
Method in brief: as §1

ML-2 [9] = system: ML-2
Method in brief: as §1

MOLM-13 [10] = system: MOLM-13
Method in brief: as §1

MV4-11 [11] = system: MV4-11
Method in brief: as §1

Mono-Mac-6 [12] = system: Mono-Mac-6
Method in brief: as §1

NOMO-1 [13] = system: NOMO-1
Method in brief: as §1

SHI-1 [14] = system: SHI-1
Method in brief: as §1

THP-1 [15] = system: THP-1
Method in brief: as §1

BV-173 [16] = test: cell viability (% survival relative to DMSO control, bortezomib = 0%); higher = less cytotoxic
Method in brief: (§2)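 Fifteen myeloid leukaemia cell lines (10 AML, 5 CML) were seeded at a density titrated to the linear growth range into 384-well plates pre-printed with compounds at 1, 10, 100, 1000 or 10000 nM in duplicate. Plates were incubated for 72 h at 37 °C with 5% CO2. Viability was then read by CellTiter-Glo luminescence. Each value is percent survival averaged over the duplicates, with vehicle set to 100% and a 10 µM positive control to 0%.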

HEL [17] = test: as above
Method in brief: as §2

HL-60 [18] = test: as above
Method in brief: as §2

K-562 [19] = test: as above
Method in brief: as §2

KCL-22 [20] = test: as above
Method in brief: as §2

KG-1 [21] = test: as above
Method in brief: as §2

KU-812 [22] = test: as above
Method in brief: as §2

LAMA-84 [23] = test: as above
Method in brief: as §2

ML-2 [24] = test: as above
Method in brief: as §2

MOLM-13 [25] = test: as above
Method in brief: as §2

MV4-11 [26] = test: as above
Method in brief: as §2

Mono-Mac-6 [27] = test: as above
Method in brief: as §2

NOMO-1 [28] = test: as above
Method in brief: as §2

SHI-1 [29] = test: as above
Method in brief: as §2

THP-1 [30] = test: as above
Method in brief: as §2

NC(CCC(=O)NC(CSCc1ccc(Br)cc1)C(=O)NCC(=O)OC1CCCC1)C(=O)OC1CCCC1 (stereo not given) [S-para-Bromobenzylglutathione cyclopentyl diester]
Conditions	IC50 (cell viability)
BV-173 [1]	2320 nM
HEL [2]	> 10 µM
HL-60 [3]	> 10 µM
K-562 [4]	> 10 µM
KCL-22 [5]	> 10 µM
KG-1 [6]	> 10 µM
KU-812 [7]	> 10 µM
LAMA-84 [8]	> 10 µM
ML-2 [9]	3.95 µM
MOLM-13 [10]	> 10 µM
MV4-11 [11]	> 10 µM
Mono-Mac-6 [12]	> 10 µM
NOMO-1 [13]	> 10 µM
SHI-1 [14]	> 10 µM
THP-1 [15]	> 10 µM

cell viability [%]
Conditions	1 nM	10 nM	100 nM	1000 nM	10000 nM
BV-173 [16]	96.5	88.3	97	77.1	28
HEL [17]	114	88.2	113	102	77
HL-60 [18]	97.3	92.7	105	90	100
K-562 [19]	105	106	104	112	93.2
KCL-22 [20]	103	97.9	104	111	98.3
KG-1 [21]	145	102	49.9	43.4	105
KU-812 [22]	90.1	97.2	95.9	101	93.9
LAMA-84 [23]	101	110	93.3	98.2	98.9
ML-2 [24]	102	87.1	105	105	8.21
MOLM-13 [25]	113	111	92.6	90	89.2
MV4-11 [26]	109	89.3	106	98.7	93.4
Mono-Mac-6 [27]	108	96.5	88.8	90.6	63.3
NOMO-1 [28]	98	98.1	97.4	97.8	95.8
SHI-1 [29]	98.2	109	98.5	91.3	99.9
THP-1 [30]	103	97.5	96.8	101	92
